Test results from patent US8791155B2, “Chroman derivatives” (Edison Pharmaceuticals, Inc., priority 2003, dated 2014).

Test system: IL-1β release from a mouse microglial cell line
Test: Interleukin-1β microglial cell assay (LPS / IFN gamma)
Format: cell-based
Details: LPS (10 μg/ml) and IFN gamma (10 ng/ml), 24 hours, read-out: EC50, inhibition of IL-1 beta induction
Method: This assay measures the release of IL-1β from a mouse microglial cell line following an inflammatory challenge with LPS and interferon-gamma. The ability of test articles to inhibit microglial cell activation and IL-1β release is determined by co-incubation of the test article with the inflammatory challenge.
Mouse microglial cells were seeded in poly-D-lysine coated 96-well plates at a density of 10,000 cells/well and allowed to attach for 24 hours. Cells were stimulated by addition of LPS (10 μg/ml) and IFN gamma (10 ng/ml) in the presence or absence of test article. The cells were then incubated for 24 hours at 37° C., after which time the media was removed and used for cytokine determination as described below.
Viability of mouse microglial cells after exposure to the test article was determined using a fluorescent viability dye, Cell Tracker Green. Cell Tracker Green was used at a working concentration of 5 μM in 1×HBSS. Cells were washed once with HBSS (200 μl/well) and 100 μl Cell Tracker Green was added to each well. Cells were then incubated at 37° C. for 30 minutes, after which time the Cell Tracker was removed and the cells were washed once with HBSS (200 μl/well). 100 pl fresh HBSS was added to each well and the plate was read on a Fluoroskan plate reader using an excitation wavelength of 485 nm and an emission wavelength of 538 nm.
1. […]
• The Costar EIA Hi-binding plate was coated with capture antibody at 4 μg/ml. […] Each well was filled to the top, dispensed, and any remaining buffer was removed by inverting the plate and gently blotting against clean paper towels. • Non-specific binding sites were blocked by adding 300 μl of Blocking Buffer to each well, and after sealing incubating for at least 1 hour at room temperature. • After washing the plate was now ready for the samples. […] 100 μl of this Substrate Solution mixture was added to each well and the plate was incubated in the dark for 20 minutes at room temperature. • 50 μl of Stop Solution was added to each well, mixing was ensured by gently tapping. • Each plate was read with the Spectramax once at 450 nm. […]

EC50 [µM] | SMILES
≤ 20 | CC1=NN(c2ccccc2)C(=O)C1C(CCC1(C)CCc2cc(O)c(C)c(C)c2O1)C1C(=O)N(c2ccccc2)N=C1C (centres unmarked) [1-(6-Hydroxy-2,7,8-trimethyl-chroman-2-yl)-3-bis-(5-methyl-2-phenyl-2,4-dihydro-pyrazol-3-one-4-yl)-propane]
≤ 20 | Cc1c(O)cc2c(c1C)OC(C)(CC/C=C1\SC(=O)NC1=O)CC2 (centres unmarked) [5-[3-(6-Hydroxy-2,7,8-trimethyl-chroman-2-yl)-propylidene]-thiazolidine-2,4-dione]
